Experimental data published in patent US20220268782A1, “METHODS FOR PREDICTING AND TREATING CARDIAC DYSFUNCTION” (INSERM (INSTITUT NATIONAL DE LA SANTÉ EAT DE LA RECHERCHE …, priority 2019, published 2022).

What was measured:
C2C12 myoblasts = assay: Oxidative stress in C2C12 cells (CellROX cytosolic superoxide, MitoSOX mitochondrial superoxide, GSH); format: cell-based
Protocol: C2C12 (ATCC® CRL-1772™) myoblasts maintained in DMEM supplemented with L-glutamine (2 mM), penicillin/streptomycin (1%) and 5% fetal bovine serum (FBS) were seeded either at a density of 5×10^4 cells (<50%) per well in 24-well plates or 10^4 cells in 4-well chamber slides. Cells were with L-phenylalanine (1-10 mM)+BH4 (10 μM) and incubation with increasing concentrations of N-acetylcysteine (0.5, 2.5, 5 mM) vs. vehicle overnight as indicated. Cells were analysed for oxidative stress with MitoSOX™ (mitochondrial superoxide; 5 μM, ThermoFisher Scientific), CellROX™ (cytosolic superoxide; 5 μM, ThermoFisher Scientific), gene or protein expression, or various metabolites (see below).
(§1) Levels of reduced glutathione (GSH; ThermoFisher), phenylalanine (BioVision) and tyrosine (BioVision) were determined from cells or plasma, with respective agents/kits following the manufacturer's recommendations. Specifically, GSH levels were estimated with the aid of ThiolTracker™ Violet fluorescent probe (ThermoFisher). Plasma and liver phenylalanine levels were determined using an enzyme-coupled, fluorometric method (BioVision). Briefly, samples were deproteinized via trichloroacetate precipitation, neutralised, tyrosinase-treated (to remove tyrosine that may interfere) and diluted to fit in the standard curve. Fluorescence reading took place at 587 nm after excitation at 535 nm. Levels of tyrosine in cells or conditioned media were determined after deproteinization using 10 kDa cut-off columns with an enzyme-coupled, colorimetric method with reading at 491 nm (BioVision).

AML-12 hepatocytes = assay: AML-12 hepatocytes: p21, Pah immunoblot and tyrosine production; format: cell-based
Protocol: Cells were washed briefly with ice-cold 1×PBS, scraped in 400 μL T-PER lysis buffer (ThermoFisher) supplemented with 0.1 mM phenylmethylsulphonyl fluoride (PMSF) and protease/phosphatase inhibitor cocktail tablet (ThermoFisher). Pulverised tissue samples (20-30 mg) were lysed in the same buffer accelerated by sonication and passing through a 21 G needle. To pellet any debris, lysates were centrifuged at 10,000 g for 10 minutes at 4° C., with the supernatant transferred to fresh tubes. Protein concentrations were determined with Bradford assay (Biorad) and lysates were diluted to equal concentration with lysis buffer. Protein lysates were then mixed with Laemmli buffer, vortexed and heated to 95° C. for 5 min. Equal amounts of protein lysates in parallel with protein molecular weight marker (ThermoFisher) were loaded onto pre-cast polyacrylamide gels (Nupage 10 or 12% Bis Tris gel, Novex, Invitrogen) and separated by electrophoresis at 200V for 1 hour. Proteins were transferred onto polyvinylidene difluoride (PVDF) membrane (Invitrogen) using an electrophoretic transfer cell (Mini Trans-Blot, Bio-Rad) in ice-cold transfer buffer (48 mM Tris base, […], 0.1% SDS, 20% methanol (v/v)) at 300 mA for 2 hours. Membranes were blocked in 1× skimmed milk (ThermoFisher) for 1 hour at room temperature, followed by overnight incubation with primary antibody diluted in blocking buffer at 4° C. Next day membranes were washed, followed by 60 minutes incubation in the corresponding horseradish peroxidase (HRP)-conjugated secondary antibody diluted 1:2000-10000 in blocking buffer (all Abcam). Blots were developed using enhanced chemiluminescence (ECL) reagents (normal, Prime & Select) and digital images were acquired using an imaging system (Azure Biosystems). Membranes were usually stripped of antibodies and reprobed with an antibody targeting a protein serving as loading control (α-actinin for hearts & β-actin for all others). For this procedure, membranes were placed in Guanidine-HCl-based stripping solution (6M Guanidine-HCl, 0.2% Nonidet P-40, 0.1M β-mercaptoethanol, 20 mM Tris-HCl, pH 7.5 and 100 mM 2-mercaptoethanol) and incubated for 10 minutes at room temperature with gentle agitation, followed by extensive washing and re-blocking.^5
AML12 cells (ATCC® CRL-2254™) were maintained in DMEM/F-12 (1:1) culture media supplemented with 10% FBS, 10 μg/ml insulin, 5.5 μg/ml transferrin, 5 ng/ml selenium, 40 ng/ml dexamethasone and 1% penicillin/streptomycin. Cells were sub-cultivated from subconfluent flasks with a ratio from 1:4 to 1:8. For WB analysis, cells were plated on 6-well plates and harvested at 80-90% of confluence. AML12 cells were transfected with indicated siRNA (Table 2) at 80% confluence using Lipofectamine RNAiMAX Transfection Reagent (ThermoFischer Scientific 13778030) following the manufacturer's instructions. Transfection efficiency was constantly checked using BLOCK-IT Alexa Fluor Red Fluorescent Control (ThermoFischer Scientific 14750100).
as §1

Row | Compound | cytosolic superoxide levels under PA treatment (C2C12 myoblasts; PA plus co-treatment (BH4 10 μM or NAC), FIG. 1f) | reduced glutathione (GSH) levels under PA treatment (C2C12 myoblasts; PA plus co-treatment, data not shown) | Pah levels under Nutlin3a-induced senescence (AML-12 hepatocytes; Nutlin3a plus co-treatment, FIG. 4o, 4r) | tyrosine production / levels under Nutlin3a-induced senescence (AML-12 hepatocytes; Nutlin3a plus co-treatment, FIG. 4p, 4q) | cytosolic superoxide levels (CellROX probe) (C2C12 myoblasts; as a function of PA concentration, FIG. 1e) | p21 protein (AML-12 hepatocytes; increasing concentrations of PA (0-10 mM), FIG. 4n)
1 | CC(O)C(O)C1CNc2nc(N)[nH]c(=O)c2N1 (stereo not drawn) [BH4, 2-amino-6-(1,2-dihydroxypropyl)-5,6,7,8-tetrahydro-3H-pteridin-4-one] | normalized | restored normal | derepressed | derepressed | – | –
2 | N[C@@H](Cc1ccccc1)C(=O)O [PA, (S)-2-Amino-3-phenylpropanoic acid] | – | – | – | – | incrementally increased | dose-dependent induction
